According to US20240025918A1, “KRAS G12D Inhibitors” (Jacobio Pharmaceuticals Co., Ltd, priority 2020, published 2024):

Columns and labels:
[1] = target: T1, GDP-loaded HIS-KRAS(G12D, aa 1-169) (Homo sapiens, UniProt P01116, G12D); experiment: SOS1 catalyzed nucleotide exchange assay (TR-FRET); type: biochemical; conditions: 4 hours at 25° C.
T1 construct: GDP-loaded HIS-KRAS(G12D, aa 1-169)
Protocol: GDP-loaded HIS-KRAS(G12D, aa 1-169) was pre-incubated with a compound in the presence of 10 nM GDPin a 384-well plate (Greiner) for 15 min, then purified SOS1 ExD(Flag tag, aa 564-1049), BODIPY™ FL GTP (Invitrogen) and MAb (monoclonal antibody) Anti 6HIS-Tb cryptate Gold (Cisbio) were added to the assay wells (Final concentration: 1.5 nM GDP-loaded HIS-KRAS(G12D), 5 nM GDP, 0.5 μM SOS1 ExD, 80 nM BODIPY™ FL GTP, 52.5 ng/mL MAb Anti 6HIS-Tb cryptate Gold) and incubated for 4 hours at 25° C. Wells containing same percent of DMSO served as vehicle control, and wells without KRAS served as low control. TR-FRET signals were read on Tecan Spark multimode microplate reader. The parameters were F486: Excitation 340 nm, Emission 486 nm, Lag time 100 μs, Integration time 200 μs; F515: Excitation 340 nm, Emission 515 nm, Lag time 100 μs, Integration time 200 μs. TR-FRET ratios for each individual wells were calculated by equation: TR-FRET ratio=(Signal F515/Signal F486)*10000. The percent of activation of compounds treated wells were normalized between vehicle control and low control (% Activation=(TR-FRET ratioCompound treated−TR-FRET ratioLow control)/(TR-FRET ratioVehicle control−TR-FRET ratioLow control)*100%). Then the data were analyzed by fitting a 4-parameter logistic model or calculating in Excel to calculate IC50 values.

AGS = experiment: Cell growth inhibition assay, AGS (CellTiter-Glo); type: cell-based; conditions: Homo sapiens, 144 h; AGS cell viability, 6 days incubation
Protocol: AGS cultured in F12K medium (Gibco) containing 10% fetal bovine serum (Gibco). Cells in culture medium were plated in 96-well plates at a concentration of 500 cells/well (100 μL/well) and allowed to attach overnight.
(§1) The next day, compounds were diluted in culture medium and added to the plates. After 6 days incubation in a 37° C./5% CO2 cell incubator, the cell viability was detected by CellTiter-Glo® Luminescent Cell Viability Assay kit (Promega). Luminescent signals were read on Tecan Spark multimode microplate reader and analyzed using a 4-parameter logistic model to calculate IC50 values.

AsPC-1 = experiment: Cell growth inhibition assay, AsPC-1 (CellTiter-Glo); type: cell-based; conditions: Homo sapiens, ASPC1, 144 h; AsPC-1 cell viability, 6 days incubation
Protocol: AsPC-1 cultured in RPMI-1640 medium (Gibco) containing 10% fetal bovine serum (Gibco). Cells in culture medium were plated in 96-well plates at a concentration of 1000 cells/well (100 μL/well) and allowed to attach overnight.
as §1

[2] = target: T2, GppNp-loaded HIS-KRAS(G12D, aa 1-169) and cRAF RBD (Homo sapiens, UniProt P01116, G12D); experiment: GTP-KRAS and cRAF interaction assay (HTRF); type: biochemical; conditions: 2 hours at 25° C.
T2 construct: GppNp-loaded HIS-KRAS(G12D, aa 1-169)
T2 sequence (P01116 1-169 isoform P01116-2 G12D): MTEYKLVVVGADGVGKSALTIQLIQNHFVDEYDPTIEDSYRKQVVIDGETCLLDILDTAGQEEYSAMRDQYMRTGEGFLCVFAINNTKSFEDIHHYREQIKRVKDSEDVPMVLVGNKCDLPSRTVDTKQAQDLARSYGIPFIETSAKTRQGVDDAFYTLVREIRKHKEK
Protocol: GppNp-loaded HIS-KRAS(G12D, aa 1-169) was pre-incubated with a compound in the presence of 200 μM GTP in a 384-well plate (Greiner) for 15 min, then cRAF RBD(GST tag, aa 50-132, CreativeBioMart), MAb Anti GST-d2 (Cisbio) and MAb Anti 6HIS-Tb cryptate Gold (Cisbio) were added to the assay wells (Final concentration: 2.0 nM GppNp-loaded HIS-KRAS(G12D), 100 μM GTP, 35 nM cRAF RBD, 1 μg/mL MAb Anti GST-d2, 52.5 ng/mL MAb Anti 6HIS-Tb cryptate Gold) and incubated for 2 hours at 25° C. Wells containing same percent of DMSO served as vehicle control, and wells without KRAS served as low control. HTRF signals were read on Tecan Spark multimode microplate reader and HTRF ratios were calculated under manufacturer's instructions. The percent of activation of compounds treated wells were normalized between vehicle control and low control (% Activation=(HTRF ratioCompound treated−HTRF ratioLow control)/(HTRF ratioVehicle control−HTRF ratioLow control)*100%). Then the data were analyzed by fitting a 4-parameter logistic model or calculating in Excel to calculate IC50 values.

[3] = tested on: AGS cells expressing KRAS G12D; experiment: Phospho-ERK1/2(THR202/TYR204) HTRF assay; type: cell-based; conditions: Homo sapiens; Phospho-ERK1/2 in AGS cells, 2 hours incubation
Protocol: AGS cells expressing KRAS G12D were cultured in F12K medium (Gibco) containing 10% fetal bovine serum (Gibco). The AGS cells in culture medium were seeded in 96-well plates at a concentration of 40,000 cells/well and then put in a 37° C./5% CO2 cell incubator to incubate overnight. The next day, culture medium was removed and the compound diluted in assay medium (F12K, 0.1% FBS) was added in each well. After 2 hours incubation in a 37° C./5% CO2 cell incubator, the assay medium in 96-well plates was removed, then 50 μL of 1× blocking reagent-supplemented lysis buffer (Cisbio) was added and the plates were incubated at 25° C. for 45 min with shaking. 10 μL of cell lysates from the 96-well plates were transferred to a 384-well plate (Greiner) containing 2.5 μL/well HTRF® pre-mixed antibodies (Cisbio 64AERPEH). Incubate 4 hours at 25° C. and then read HTRF signals on Tecan Spark multimode microplate reader. The data were analyzed using a 4-parameter logistic model to calculate IC50 values.

T1 sequence (P01116 1-169 isoform P01116-2 G12D): as above

Structure (SMILES) | IC50 [1] [nM] | IC50 (AGS) [nM] | IC50 (AsPC-1) [nM] | IC50 [2] [nM] | IC50 [3] [nM]
C#Cc1cccc2cc(O)cc(-c3c(F)cc4c(N5CC6CCC(C5)N6)nc(OCC5(CN6CCCOCC6)CC5)nc4c3F)c12 [Compound 37] | 4.36 | 6.48 | 89.9 | 50.1 | 10.9
C#Cc1cccc2cc(O)cc(-c3c(F)cc4c(N5CC6CCC(C5)N6)nc(OCC5(CN6CCC7(CCOC7)C6)CC5)nc4c3F)c12 (centres unmarked) [Compound 45] | 26.4 | 74.2 | 653 | 408 | 125
C#Cc1cccc2cc(O)cc(-c3c(F)cc4c(N5CC6CCC(C5)N6)nc(OCC5(CN6CC7(CCOC7)C6)CC5)nc4c3F)c12 [Compound 46] | 5.92 | 55.4 | 488 | 242 | 23.1
C#Cc1cccc2cc(O)cc(-c3c(F)cc4c(N5CC6CCC(C5)N6)nc(OCC5(CN6CCC7(CCCO7)C6)CC5)nc4c3F)c12 (centres unmarked) [Compound 47] | 2.58 | 29 | 227 | 92.1 | 31.4
C#Cc1cccc2cc(O)cc(-c3c(F)cc4c(N5CC6CCC(C5)N6)nc(OCC5(CN6CC7(CCCCO7)C6)CC5)nc4c3F)c12 [Compound 48] | 1.49 | 36.4 | 315 | 118 | 38.6
C#Cc1cccc2cc(O)cc(-c3c(F)cc4c(N5CC6CCC(C5)N6)nc(OCC5(CN6C[C@@H]7OCCO[C@@H]7C6)CC5)nc4c3F)c12 [Compound 50] | 1.39 | 3.49 | 70 | 42.5 | 9.39
C#Cc1cccc2cc(O)cc(-c3c(F)cc4c(N5CC6CCC(C5)N6)nc(OCC5(CN6C7CCC6CC(=O)C7)CC5)nc4c3F)c12 [Compound 51] | 1.26 | 1.25 | 66 | 59.4 | 12.1
C#Cc1cccc2cc(O)cc(-c3c(F)cc4c(N5CC6CCC(C5)N6)nc(OCC5(CN6CCc7sccc7C6)CC5)nc4c3F)c12 [Compound 52] | 4.26 | 32.4 | 93 | 286 | 271
C#Cc1cccc2cc(O)cc(-c3c(F)cc4c(N5CC6CCC(C5)N6)nc(OCC5(CN6CCC7(CCOCC7)C6)CC5)nc4c3F)c12 [Compound 55] | 1.37 | 7.71 | 77 | 23.1 | 5.39
C#Cc1cccc2cc(O)cc(-c3c(F)cc4c(N5CC6CCC(C5)N6)nc(OCC5(CN6CC7(CCO7)C6)CC5)nc4c3F)c12 [Compound 56] | 2.05 | 14.9 | 182 | 53.2 | 7.66
